Here are results for three compounds from ChEMBL document CHEMBL5331112, “Recent Advances in Pro-PROTAC Development to Address On-Target Off-Tumor Toxicity” (J Med Chem, 2023).

Series [1] can be described thus: Cytotoxicity against human HFF-1 cells assessed as cell growth inhibition. The class given is toxicity, cell-based.
Series [2] relates to MCF7. Briefly: Anticancer activity against human MCF7 cells assessed as cell growth inhibition CCK8 assay. The class given is functional, cell-based. A general note: Formazan colour is commonly taken as a measure of viable cells.
The target of series [3] is von Hippel-Lindau disease tumor suppressor/Bromodomain-containing protein 4 (Homo sapiens, UniProt O60885+P40337). In words: PROTAC activity at VHL/BRD4 in human MCF7 cells assessed as degradation of BRD4 incubated by Western blot assay. In kind it is cell-based. In general terms: In western blotting, separated proteins are transferred to a membrane and probed.
The subject of series [4] is MCF7. Briefly: Anticancer activity against human MCF7 cells xenografted in mouse assessed as cell growth inhibition […] relative to control. In kind it is functional. (In xenograft studies the graft and the host belong to different species.)
The next series relates to SU-DHL-1. In words: Anticancer activity against human SU-DHL-1 cells assessed as cell growth inhibition. The class given is functional, cell-based.

Each structure is given as a SMILES string. A value given as a limit tells only on which side of the number the result lay.

The IC50 is the concentration needed to halve the response being measured. By DC50 is commonly meant the midpoint of the concentration-degradation curve. What is called TGI is the reduction of tumour growth relative to the control group.

von Hippel-Lindau disease tumor suppressor/Bromodomain-containing protein 4, sequence (P40337 whole entry, looked up, other chains not shown): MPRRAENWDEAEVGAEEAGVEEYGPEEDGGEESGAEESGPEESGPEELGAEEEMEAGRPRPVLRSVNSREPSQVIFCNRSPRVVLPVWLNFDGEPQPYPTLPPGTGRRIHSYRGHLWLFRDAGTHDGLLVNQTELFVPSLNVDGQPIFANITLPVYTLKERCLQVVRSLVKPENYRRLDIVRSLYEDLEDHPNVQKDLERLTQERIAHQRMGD

`Cc1ncsc1-c1ccc([C@H](C)NC(=O)[C@@H]2C[C@@H](OC(=O)CCCCn3cc(CNC(=O)CC[C@H](NC(=O)c4ccc(NCc5cnc6nc(N)[nH]c(=O)c6n5)cc4)C(=O)O)nn3)CN2C(=O)[C@@H](NC(=O)COCCCOCCNC(=O)C[C@@H]2N=C(c3ccc(Cl)cc3)c3c(sc(C)c3C)-n3c(C)nnc32)C(C)(C)C)cc1`: the IC50 in series [1] is greater than 10000 nM.
`CNC(=O)CCC(=O)OCCSSCCOC(=O)O[C@@H]1C[C@@H](C(=O)N[C@@H](C)c2ccc(-c3scnc3C)cc2)N(C(=O)[C@H](NC(=O)COCCOCCOCCNC(=O)C[C@@H]2N=C(c3ccc(Cl)cc3)c3c(sc(C)c3C)-n3c(C)nnc32)C(C)(C)C)C1`: the IC50 in the series on MCF7 [2] came to 56.9 nM. In addition, the DC50 in series [3] worked out at 22 nM. The TGI in the series on MCF7 [4] worked out at 77.5%.
Turning to `Cc1cc(Nc2ncc(Cl)c(Nc3ccccc3S(=O)(=O)C(C)C)n2)c(OC(C)C)cc1C1CCN(C(=O)CCCC(=O)N[C@H](C(=O)N2C[C@H](OC(=O)CCCCn3cc(CNC(=O)CC[C@H](NC(=O)c4ccc(NCc5cnc6nc(N)[nH]c(=O)c6n5)cc4)C(=O)O)nn3)C[C@H]2C(=O)N[C@@H](C)c2ccc(-c3scnc3C)cc2)C(C)(C)C)CC1`, in the series with SU-DHL-1, the IC50 was determined as 200 nM.
